Tests used:
[1] = Biodegradation: mineralization in compost, respirometer; conditions: room temperature (22° C.), compared to starch control
Experimental: The relative degradation rate of samples was determined using a respirometer (Micro-Oxymax System, Columbus Instruments, Columbus, Ohio). The respirometer CO2 sensor was calibrated with a CO2 standard gas (8,000 ppm). […] The analyzer was equipped with a thermoconductivity detector and was operated using helium gas.
Commercial compost was purchased locally and adjusted to 58% moisture (dry weight basis). The glass sample bottles (250 ml) were filled with 20.0 g compost and 0.30 g test sample that was gently mixed with the compost. The sample bottles were initially flushed with CO2-free air and sealed. Respirometry experiments were conducted at room temperature (22° C.) and CO2 concentration was read every 12 hr. Three replications were tested for each treatment and data were expressed in terms of percentage mineralization.

[2] = at 20 C; cited from earlier work
[3] = test system: varroa (Varroa destructor); conditions: at elevated levels, honey bee colonies; cited from earlier work

Row | Molecule | Mineralization rate (biodegradability) [1] | vapor pressure [2] | Control of parasitic mites [3]
1 | mannitol dioctanoate [M8] | mineralized at nearly the same rate as the starch control | – | –
2 | CCCCCC(C)=O [2-heptanone] | – | 0.48 kPa | controls parasitic mites
